We go through two compounds from patent US20170296500A1, “Uses of Chlorogenic Acid in the Preparation of Medicaments for Treatment of Psoriasis” (SICHUAN JIUZHANG BIOLOGICAL SCIENCE AND TECHNOLOGY CO., LTD, priority 2014, published 2017).

Read-outs that look alike come from different tables or passages of the source.

In series [1] the test system is psoriasiform pathological change in aural region of guinea pigs. The series can be described thus: Pharmacodynamic test, psoriasis vulgaris model induced by 5% propranolol emulsion on guinea pig ears; Baker pathologic scores. Conditions: 14 days; for Pathology of lesional tissue after administration (light microscope): guinea pig ear, HE stain; for Baker scores compared with model group: P<0.01. The series is classed as in vivo.
Text: 60 guinea pigs adapted to diet one week before initiation of experimentation, and both ears of guinea pigs were unhaired, and randomly divided into blank group and experimental group, with 12 guinea pigs for blank group and 48 guinea pigs for experimental group. In experimental group, 5% propranolol dinitrate emulsion was evenly applied to bilateral ear back of guinea pigs, while in blank group, blank medium was applied for 14 days, with a thickness of about 1.0 mm for each time and 4 times per day, to induce pathologic change of psoriasis vulgaris-appearing. […] Based on body weight and conditions of establishing model, the remaining 44 guinea pigs were divided into 4 groups using random digits table, i.e. model group, positive group, low-dose group of chlorogenic acid, high-dose group of chlorogenic acid, 11 guinea pigs for each group.
After administrating for 14 days, samples were taken, and 12% chloral hydrate was peritoneally injected at a dose of 0.35 mL/100 g. After anesthesia, blood sample was collected from abdominal aorta, and animals were sacrificed. Both ear tissues of guinea pigs were scissored and fixed in 10% formaldehyde solution. Ear tissues of guinea pigs were taken out, embedded in paraffin, sliced, normally stained with HE, and sealed with neutral gum. Pathological change of ears was observed under optical microscope, investigated and taken a picture in 10×20 vision. Referring to Baker method, pathologic scores of tissues were assessed: the presence of Munro microabscess in corneum layer scores 2.0 point; hyperkeratosis scores 0.5 point; parakeratosis scores 1.0 point; stratum granulosum thinning and disappearing scores 1.0 point; acanthosis scores 1.0 point; skin process extension and tortuous basal lamina are marked 0.5, 1.0, 1.5 according to light, middle, and heavy degrees, respectively; mononuclear cells and polymorphonuclear cells infiltration in dermis is marked 0.5, 1.0, 1.5 according to light, middle, and heavy degrees, respectively; obvious mastoid extrusion scores 0.5 point; telangiectasis in superficial layer of dermis scores 0.5 point.

The test system of series [2] is polymorphonuclear leukocytes (PMN). The series can be described thus: PMN transport into zymosan A-soaked gelatin sponge in peritoneal cavity of mice (psoriasis pustulosa test). The series is classed as in vivo, Kunmin mice. As for the experimental part:
Kunmin mice were randomly divided into 3 groups. Blank control group: according to body weight, about 0.5 ml of peanut oil was administrated to mice by gavage everyday; for high-dose group of chlorogenic acid (20 mg·kg^−1), chlorogenic acid was administrated to each mouse at a dose of 0.4 ml/20 g by peritoneal injection; for low-dose group of chlorogenic acid (10 mg·kg^−1), chlorogenic acid was administrated to each mouse at a dose of 0.4 ml/20 g by peritoneal injection. Following phasic points were observed, i.e. before administration (day 0), days 1, 2, 4, 6 after administration.
After a piece of sterile gelatin sponge (1 cm^2) was immersed in 0.75% zymosan A for 30 min, it was placed in peritoneal cavity of mice by surgery, and mice received standard diet. 24 hours after surgery, 5 mice of same phasic point were decapitated, and the gelatin sponges were taken out and stored in 0.5 ml cell eluant for culturing 30 min at 37 ° C., respectively. The gelatin sponges were washed with 0.01 mol/LPBS0.5 ml thrice, respectively, and the eluant was collected, passed through 40 μm nylon screen cloth, centrifuged, and the volume was 0.5 ml. Cells in above eluants were counted by automatic blood cell counter, and the amount of polymorphonuclear leukocytes (PMN) was read.

On the set-up of series [3]: species or system guinea pigs. As to conditions: guinea pig, in vivo. How it is done:
0.9% sodium chloride solution was administrated to blank group and model group; Positive drug control group was given suspension of acitretin A capsule at 2.25 mg/kg, and the amount of intragastric administration is all 1 mL/100 g for each time, twice a day; 20 mg/kg chlorogenic acid was administrated to the low-dose group by intramuscular injection, and 40 mg/kg chlorogenic acid was administrated to the high-dose group by intramuscular injection, using a volume of 0.2 ml/10 g, once a day.
Before guinea pigs were sacrificed, blood was drawn via peritoneal cavity, and urea nitrogen and creatinine were detected by enzymic method, while glutamate pyruvate transaminase and glutamic-oxalacetic transaminase were tested using rate method.

As to `COc1cc(C)c(/C=C/C(C)=C/C=C/C(C)=C/C(=O)O)c(C)c1C` [Acitretin A capsule, Acitretin A, reference compound], the “Pathology of lesional tissue after administration (light microscope)” value in series [1] (positive group 2.25 mg/kg intragastric twice a day) is “obvious improvement”. Moreover, in series [1] (guinea pigs, positive group 2.25 mg/kg intragastric twice a day), the “Baker scores compared with model group” value is on record as “significantly different”.
Take `O=C(/C=C/c1ccc(O)c(O)c1)O[C@@H]1C[C@](O)(C(=O)O)C[C@@H](O)[C@H]1O` [chlorogenic acid]: in series [2] (10 and 20 mg/kg peritoneal injection), the “Chemotactic activity of PMN in mice” value was “significantly reduce”. Further, the PMN transport numbers is reported as 7.60 ± 6.07 ×10^9/L in series [2] (high dose group 20 mg/kg peritoneal injection, Day 0 (before administration)); 1.54 ± 0.26 ×10^9/L in series [2] (high dose group 20 mg/kg peritoneal injection, Day 1); 1.20 ± 2.14 ×10^9/L in series [2] (high dose group 20 mg/kg peritoneal injection, Day 2); 1.15 ± 0.89 ×10^9/L in series [2] (high dose group 20 mg/kg peritoneal injection, Day 4); 1.10 ± 1.29 ×10^9/L in series [2] (high dose group 20 mg/kg peritoneal injection, Day 6); 6.98 ± 1.71 ×10^9/L in series [2] (low dose group 10 mg/kg peritoneal injection, Day 0 (before administration)). Moreover, the PMN transport numbers is on record as 4.92 ± 2.63 ×10^9/L in series [2] (low dose group 10 mg/kg peritoneal injection, Day 1); 2.67 ± 1.33 ×10^9/L in series [2] (low dose group 10 mg/kg peritoneal injection, Day 2); 1.98 ± 0.90 ×10^9/L in series [2] (low dose group 10 mg/kg peritoneal injection, Day 4); 1.62 ± 0.58 ×10^9/L in series [2] (low dose group 10 mg/kg peritoneal injection, Day 6). Also, the “Inhibitory action on chemotactic activity of PMN, high dose group (20 mg/kg) compared with low dose group (10 mg/kg)” value in series [2] (peritoneal injection) was “stronger inhibitory action”. Further, the “Pathology of lesional tissue after administration (light microscope)” value in series [1] (chlorogenic group 20 and 40 mg/kg i.m.) is recorded as “obvious improvement”. The “Baker scores compared with model group” value in series [1] (guinea pigs, 20 and 40 mg/kg intramuscular injection once a day) is given as “significantly different”. For the same compound, the “Baker score of low-dose group (20 mg/kg) relative to high-dose group (40 mg/kg)” value in series [1] (guinea pigs, intramuscular injection once a day, not dose-dependent) is listed as “superior”. Also, the values for the ALT in series [3] (20 mg/kg) and in series [3] (40 mg/kg) were 33.40 ± 7.26 u/L and 32.30 ± 6.07 u/L, respectively. Besides, the AST in series [3] (20 mg/kg) amounted to 29.10 ± 7.29 u/L; in series [3] (40 mg/kg), 24.80 ± 2.57 u/L. Besides, the Serum creatinine in series [3] (20 mg/kg) is 88.33 ± 7.80 µmol/L; in series [3] (40 mg/kg), 87.27 ± 4.67 µmol/L. The Urea nitrogen in series [3] (20 mg/kg) was 4.92 ± 0.63 mmol; in series [3] (40 mg/kg) it was 4.98 ± 0.71 mmol.
